Reference: BindingDB's records for doi:10.1080/14756360500112326 (National Institute of Pharmaceutical Education and Research, 2005)

Each compound was assayed against Xanthine dehydrogenase/oxidase (Homo sapiens, UniProt P47989) (assay: Xanthine Oxidase Inhibition Assay).
Procedure: Inhibition assay of the xanthine oxidase reaction by various purine based inhibitors was measured in terms of the decrease in uric acid formation at […].

Chain of Xanthine dehydrogenase/oxidase (P47989 whole entry): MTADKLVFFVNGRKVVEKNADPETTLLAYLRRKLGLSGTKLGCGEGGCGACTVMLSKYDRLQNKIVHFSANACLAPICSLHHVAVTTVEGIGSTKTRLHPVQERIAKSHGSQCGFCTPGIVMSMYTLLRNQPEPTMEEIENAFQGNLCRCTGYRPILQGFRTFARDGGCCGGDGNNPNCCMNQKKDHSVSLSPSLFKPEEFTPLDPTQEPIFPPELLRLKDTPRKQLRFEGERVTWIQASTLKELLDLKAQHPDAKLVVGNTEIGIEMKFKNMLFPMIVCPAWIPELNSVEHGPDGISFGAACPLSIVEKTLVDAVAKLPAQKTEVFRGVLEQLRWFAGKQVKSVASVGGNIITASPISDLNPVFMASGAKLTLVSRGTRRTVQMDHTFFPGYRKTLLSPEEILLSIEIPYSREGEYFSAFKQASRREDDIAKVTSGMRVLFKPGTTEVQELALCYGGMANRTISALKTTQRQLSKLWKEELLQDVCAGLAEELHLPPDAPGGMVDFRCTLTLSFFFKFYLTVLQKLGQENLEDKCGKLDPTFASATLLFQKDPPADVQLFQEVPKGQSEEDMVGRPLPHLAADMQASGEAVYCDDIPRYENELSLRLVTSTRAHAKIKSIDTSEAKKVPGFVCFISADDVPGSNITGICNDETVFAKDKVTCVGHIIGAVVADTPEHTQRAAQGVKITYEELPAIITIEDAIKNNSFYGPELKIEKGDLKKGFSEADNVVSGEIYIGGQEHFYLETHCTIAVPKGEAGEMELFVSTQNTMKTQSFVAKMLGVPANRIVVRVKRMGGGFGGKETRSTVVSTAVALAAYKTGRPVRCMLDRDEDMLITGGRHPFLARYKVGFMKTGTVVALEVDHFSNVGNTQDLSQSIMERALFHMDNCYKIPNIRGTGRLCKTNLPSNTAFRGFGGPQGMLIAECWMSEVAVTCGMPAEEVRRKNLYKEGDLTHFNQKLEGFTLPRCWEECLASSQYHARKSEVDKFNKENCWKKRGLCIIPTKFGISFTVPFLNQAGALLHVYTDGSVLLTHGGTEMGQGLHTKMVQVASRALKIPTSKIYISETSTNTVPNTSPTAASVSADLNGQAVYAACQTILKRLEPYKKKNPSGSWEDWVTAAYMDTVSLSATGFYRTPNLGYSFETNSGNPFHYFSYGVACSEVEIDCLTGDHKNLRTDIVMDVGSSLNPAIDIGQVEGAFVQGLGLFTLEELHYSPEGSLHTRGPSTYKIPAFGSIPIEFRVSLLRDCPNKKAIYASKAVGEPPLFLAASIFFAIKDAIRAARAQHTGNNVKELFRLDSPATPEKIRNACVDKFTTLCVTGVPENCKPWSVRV

Row | IC50 | Structure (SMILES)
1 | 75.6 µM | Nc1ncnc2nc[nH]c12
2 | 0.45 µM | O=C(Nc1ncnc2nc[nH]c12)c1ccccc1 [6-(N-benzoylamino)purine, 2]
3 | 400 µM | O=c1[nH]c(=O)c2[nH]c(Br)nc2[nH]1 [8-Bromoxanthine, 3]
